Reference: the Kinase Knowledgebase extract (Sharma et al. 2016)

Tests used:
PIK3CG (human) = PIK3CG (human) (UniProt P48736); assay: Assessment of PIK3CG Kinase Activity
[1] = target: PIK3CA (human), P42336 [H1047R]; assay: Assessment of PIK3CA(H1047R) Kinase Activity
[2] = target: PIK3CA (human), P42336 [E545K]; assay: Assessment of PIK3CA(E545K) Kinase Activity
PIK3CA (human) = PIK3CA (human) (UniProt P42336); assay: Assessment of PIK3CA Kinase Activity
PIK3CB (Human) = PIK3CB (Human) (UniProt P42338); assay: Assessment of PIK3CB Kinase Activity
Chain of PIK3CB (Human) (P42338 whole entry, looked up): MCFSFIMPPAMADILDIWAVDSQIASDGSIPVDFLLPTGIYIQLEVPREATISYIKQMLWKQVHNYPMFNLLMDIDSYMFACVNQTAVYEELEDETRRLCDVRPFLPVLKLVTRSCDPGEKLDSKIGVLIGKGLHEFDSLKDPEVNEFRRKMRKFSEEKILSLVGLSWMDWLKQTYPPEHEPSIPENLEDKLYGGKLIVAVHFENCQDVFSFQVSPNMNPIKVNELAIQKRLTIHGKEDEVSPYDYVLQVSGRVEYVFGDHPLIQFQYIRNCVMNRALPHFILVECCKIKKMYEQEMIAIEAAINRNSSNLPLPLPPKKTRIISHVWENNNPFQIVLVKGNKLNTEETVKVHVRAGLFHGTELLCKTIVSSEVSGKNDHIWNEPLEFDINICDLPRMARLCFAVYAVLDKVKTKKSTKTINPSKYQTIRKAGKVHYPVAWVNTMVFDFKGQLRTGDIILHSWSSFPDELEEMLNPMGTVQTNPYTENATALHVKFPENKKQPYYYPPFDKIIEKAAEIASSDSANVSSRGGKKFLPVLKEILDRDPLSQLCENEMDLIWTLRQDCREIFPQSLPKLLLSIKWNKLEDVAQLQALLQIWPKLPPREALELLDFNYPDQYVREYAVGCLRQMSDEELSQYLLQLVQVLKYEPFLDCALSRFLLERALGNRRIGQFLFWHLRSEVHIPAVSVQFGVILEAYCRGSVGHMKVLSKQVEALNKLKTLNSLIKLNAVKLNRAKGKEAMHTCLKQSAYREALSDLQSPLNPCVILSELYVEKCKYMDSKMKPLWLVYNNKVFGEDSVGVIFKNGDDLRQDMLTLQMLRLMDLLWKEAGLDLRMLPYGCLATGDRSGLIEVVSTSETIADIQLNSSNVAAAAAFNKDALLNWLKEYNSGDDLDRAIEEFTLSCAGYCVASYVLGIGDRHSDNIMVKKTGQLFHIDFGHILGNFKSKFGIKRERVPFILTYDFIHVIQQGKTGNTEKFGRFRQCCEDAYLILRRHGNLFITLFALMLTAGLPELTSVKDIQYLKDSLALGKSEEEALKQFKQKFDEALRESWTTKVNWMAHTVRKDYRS

Chain of PIK3CA (human), P42336 [E545K] (P42336 whole entry E545K, looked up): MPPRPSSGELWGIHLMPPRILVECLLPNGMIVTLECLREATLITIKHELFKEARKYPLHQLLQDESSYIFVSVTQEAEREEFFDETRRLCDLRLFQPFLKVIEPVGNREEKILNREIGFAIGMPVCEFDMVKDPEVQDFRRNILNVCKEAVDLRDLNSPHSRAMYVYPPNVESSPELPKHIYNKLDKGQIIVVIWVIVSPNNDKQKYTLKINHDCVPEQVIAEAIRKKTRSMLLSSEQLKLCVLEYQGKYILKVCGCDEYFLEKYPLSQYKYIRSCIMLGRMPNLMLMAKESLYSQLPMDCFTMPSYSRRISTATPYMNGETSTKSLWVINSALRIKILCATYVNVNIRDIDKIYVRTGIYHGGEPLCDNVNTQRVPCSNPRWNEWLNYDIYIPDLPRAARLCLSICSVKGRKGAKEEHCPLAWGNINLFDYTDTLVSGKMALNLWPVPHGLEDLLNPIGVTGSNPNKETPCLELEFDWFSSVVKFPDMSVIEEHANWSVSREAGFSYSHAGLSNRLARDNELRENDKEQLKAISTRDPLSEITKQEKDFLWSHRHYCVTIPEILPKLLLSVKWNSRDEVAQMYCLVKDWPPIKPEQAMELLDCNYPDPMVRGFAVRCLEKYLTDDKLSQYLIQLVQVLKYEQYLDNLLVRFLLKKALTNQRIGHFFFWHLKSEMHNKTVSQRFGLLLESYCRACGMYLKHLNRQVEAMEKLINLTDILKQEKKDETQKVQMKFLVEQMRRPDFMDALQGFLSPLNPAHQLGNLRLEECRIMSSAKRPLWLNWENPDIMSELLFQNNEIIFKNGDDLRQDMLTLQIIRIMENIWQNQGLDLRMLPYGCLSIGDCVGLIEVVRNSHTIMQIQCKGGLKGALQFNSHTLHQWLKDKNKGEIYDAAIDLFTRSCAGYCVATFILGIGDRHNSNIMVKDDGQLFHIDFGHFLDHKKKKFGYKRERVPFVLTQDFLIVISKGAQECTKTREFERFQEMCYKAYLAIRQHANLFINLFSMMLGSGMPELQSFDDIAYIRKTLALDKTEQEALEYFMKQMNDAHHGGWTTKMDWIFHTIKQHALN
Chain of PIK3CG (human) (P48736 whole entry, looked up): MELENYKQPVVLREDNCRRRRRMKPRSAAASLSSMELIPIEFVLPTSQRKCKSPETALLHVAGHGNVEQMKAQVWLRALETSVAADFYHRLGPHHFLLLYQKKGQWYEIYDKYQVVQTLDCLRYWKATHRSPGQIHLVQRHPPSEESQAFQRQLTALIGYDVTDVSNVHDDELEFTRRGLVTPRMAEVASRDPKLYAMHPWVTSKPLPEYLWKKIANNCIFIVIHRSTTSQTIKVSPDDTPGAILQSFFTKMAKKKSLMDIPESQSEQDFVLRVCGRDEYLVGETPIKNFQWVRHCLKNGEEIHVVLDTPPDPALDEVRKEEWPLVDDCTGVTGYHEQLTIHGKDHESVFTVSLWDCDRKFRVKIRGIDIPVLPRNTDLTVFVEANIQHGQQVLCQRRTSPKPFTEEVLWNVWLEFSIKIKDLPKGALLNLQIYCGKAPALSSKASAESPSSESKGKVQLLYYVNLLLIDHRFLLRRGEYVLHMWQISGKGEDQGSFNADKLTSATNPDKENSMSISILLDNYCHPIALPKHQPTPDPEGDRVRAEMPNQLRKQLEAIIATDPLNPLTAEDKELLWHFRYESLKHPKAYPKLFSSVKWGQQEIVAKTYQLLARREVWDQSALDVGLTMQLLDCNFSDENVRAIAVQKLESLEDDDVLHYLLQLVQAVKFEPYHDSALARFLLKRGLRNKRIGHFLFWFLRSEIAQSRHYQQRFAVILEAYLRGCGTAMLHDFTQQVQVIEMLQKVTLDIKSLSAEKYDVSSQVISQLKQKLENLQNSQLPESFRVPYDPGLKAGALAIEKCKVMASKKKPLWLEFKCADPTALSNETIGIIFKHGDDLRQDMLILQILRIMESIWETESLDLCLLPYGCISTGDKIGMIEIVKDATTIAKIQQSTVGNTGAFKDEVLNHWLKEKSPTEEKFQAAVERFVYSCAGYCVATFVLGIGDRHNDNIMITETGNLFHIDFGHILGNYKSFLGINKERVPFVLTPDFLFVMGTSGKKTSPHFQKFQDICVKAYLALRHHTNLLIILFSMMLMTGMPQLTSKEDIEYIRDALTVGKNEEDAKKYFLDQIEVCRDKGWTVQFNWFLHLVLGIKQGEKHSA
Chain of PIK3CA (human) (P42336 whole entry, looked up): as the sequence (P42336 whole entry E545K, looked up) above, with K545E counted along it
Chain of PIK3CA (human), P42336 [H1047R] (P42336 whole entry H1047R, looked up): as the sequence (P42336 whole entry E545K, looked up) above, with K545E, H1047R counted along it

| IC50 (PIK3CG (human)) | IC50 [1] | IC50 [2] | IC50 (PIK3CA (human)) | IC50 (PIK3CB (Human)) | SMILES |
| --- | --- | --- | --- | --- | --- |
| < 500 nM | < 50 nM | < 50 nM | < 50 nM | < 50 nM | CN(C)C(=O)c1ccc(NC(=O)Nc2ccc(-c3nc(N4CCOCC4)c4ncc(-c5cccnc5F)cc4n3)cn2)cc1 |
| < 500 nM | 50 to 500 nM | 50 to 500 nM | < 50 nM | 50 to 500 nM | CN(C)C(=O)c1ccc(NC(=O)Nc2ccc(-c3nc(N4CCOCC4)c4ccc(-c5cccnc5)cc4n3)cc2)c(F)c1 |
| < 500 nM | < 50 nM | < 50 nM | < 50 nM | < 50 nM | CN(C)C(=O)c1ccc(NC(=O)Nc2ccc(-c3nc(N4CCOCC4)c4ccc(-c5cccc(S(C)(=O)=O)c5)cc4n3)cn2)cc1 |
| 500 to 1000 nM | < 50 nM | < 50 nM | < 50 nM | 500 to 1000 nM | Cc1ccc(-c2ccc3c(N4CCOCC4)nc(-c4ccc(NC(=O)Nc5ccc(C(=O)N(C)C)cc5)cc4)nc3c2)o1 |
| < 500 nM | < 50 nM | < 50 nM | < 50 nM | < 50 nM | CN(C)C(=O)c1ccc(NC(=O)Nc2ccc(-c3nc(N4CCOCC4)c4ccc(-c5cccnc5F)cc4n3)cn2)cc1 |
| < 500 nM | < 50 nM | < 50 nM | < 50 nM | < 50 nM | CN(C)C(=O)c1ccc(NC(=O)Nc2ccc(-c3nc(N4CCOCC4)c4ccc(-c5cccc(S(C)(=O)=O)c5)cc4n3)cn2)cc1F |
